Measurements from US6248905A, “Acyl derivatives of glycosyl-L-ascorbic acid” (priority 1998, dated 2001).
Blank lines part the entries; values can stand above or below the molecule they belong to.

How the values were obtained:
[1] = test system: artificial skin (TESTSKIN, human-skin-restructuring-model); test: Skin permeation test using TESTSKIN; conditions: 10 mM, 37° C., peak levels
Description: According to the specification affixed to the product, a medium for assay was injected to a plate for assay in a volume of 1.2 ml/well, and a transferring well, attached with an artificial skin, was loaded on the bottom of the plate, and attached with an assay ring applied with a silicone grease in the middle of the transferring well.

[2] = Radical-entrapping ability (DPPH oxidation-inhibitory activity); format: biochemical; conditions: for EC50: DPPH, ambient temperature, 20 min, read-out: EC50 (50% oxidation-inhibitory-concentration); for Oxidation inhibitory effect (%): sample concentration 10^-4 M
Description: In parallel, as a control, a system using a 60 v/v % aqueous ethanol solution was provided in place of the test samples, and treated similarly as in the case of the acyl derivatives. The percentage (%) of the absorbance of the test samples to that of the control was regarded as an oxidation-inhibitory activity, and the activity was used as an index of radical-entrapping ability. The 50% oxidation-inhibitory-concentration (EC50) was calculated based on a logarithmic value of a concentration of the test sample used and on an oxidation-inhibitory ability shown by the sample at the concentration.

[3] = test system: guinea pigs with scorbutus; test: Anti-scorbutus test; format: in vivo, male Hurtley's guinea pigs; conditions: for days needed to recover maximum body weight before initiating the administration: oral, 56.80 μmol/head/shot once every morning
Description: In accordance with the method as reported in Journal of Pharmacobio-Dynamics, Vol. 13, pp. 688-695 (1990) by the present inventors, male Hurtley's guinea pigs, 4-week-old, were bred under free intake of water and vitamin C-defective food, commercialized by Oriental Yeast Co., Ltd., Tokyo, Japan, while the guinea pigs were weighed every morning at a prescribed time as an index of the symptom of anti-scorbutus disease. […] In parallel, one group as a control, in which guinea pigs were administered with only a fresh preparation of the same water free of the specimens, was provided and treated similarly as in the groups with the specimens.

[4] = Dynamic test, intravenous administration to rats (blood level); format: in vivo, Male Wister/ST rats
Description: Male Wister/ST rats, 12-14-week-old, were fasted for 16 hours and, under an anesthetic, 200-μl blood was taken from their hearts using a syringe injected with a physiological saline containing 600 units/ml heparin. […] Just after the administration and after a prescribed period of time from the administration, blood was taken from the rats similarly as above at a prescribed time interval, and the blood taken was admixed with an adequate amount of heparin and instantly centrifuged at 4° C. to collect supernatants.

physchem = conditions: phosphate buffer, pH 7
Description: To the solution was added 9.8 ml of 100 mM phosphate buffered aqueous solution (pH 7.0), and the aqueous solution was sterilized, and then incubated at 37° C. or 60° C. while the aqueous solution was sampled at prescribed times, followed by freezing the samples instantly at -30° C. for storing. Thereafter, the aqueous solution stored by freezing was thawed, analyzed on HPLC, and determined for the remaining content of the acyl derivatives based on the absorbance at a wavelength of 254 nm.

Structure (SMILES): CCCCCCCCCCCC(=O)OC[C@H](O)[C@H]1OC(=O)C(O[C@H]2O[C@H](CO)[C@@H](O)[C@H](O)[C@H]2O)=C1O [Example 6-Dode-AA-2G, 6-O-dodecanoyl-2-O-α-D-monoglucopyranosyl-L-ascorbic acid]
- skin permeability (peak level) relative to L-ascorbic acid [1]: 7 times
- EC50 [2]: 63.2 µM
- Oxidation inhibitory effect (%) [2]: 78.3%

Structure (SMILES): CCCCCCCCCC(=O)OC[C@H](O)[C@H]1OC(=O)C(O[C@H]2O[C@H](CO)[C@@H](O)[C@H](O)[C@H]2O)=C1O [Example 6-Deca-AA-2G, 6-O-decanoyl-2-O-α-D-monoglucopyranosyl-L-ascorbic acid]
- EC50 [2]: 73 µM
- Oxidation inhibitory effect (%) [2]: 67.5%

Structure (SMILES): O=C1O[C@H]([C@@H](O)CO)C(O)=C1O[C@H]1O[C@H](CO)[C@@H](O)[C@H](O)[C@H]1O [AA 2G, 2-O-α-D-Monoglucopyranosyl-L-ascorbic acid]
- internal bleeding caused by scorbutus ([3]; anatomic finding): no such an observation
- blood level of alkaline phosphatase ([3]; blood): recovered almost to the normal level
- level of L-ascorbic acid in the blood ([3]; blood, numeral data excluded): recovered nearly to a normal level
- level of L-ascorbic acid in the liver ([3]; liver, numeral data excluded): recovered nearly to a normal level
- days needed to recover maximum body weight before initiating the administration [3]: eight
- degraded at 48 h (physchem): 3.9%
- degraded at 336 h (physchem): 1.6%
- EC50 [2]: 90.3 µM
- Oxidation inhibitory effect (%) [2]: 55.4%

Structure (SMILES): O=C1O[C@H]([C@@H](O)CO)C(O)=C1O [AsA, L-Ascorbic acid]
- degraded at 12 h (physchem): 75.9%
- degraded at 72 h (physchem): 68.3%
- EC50 [2]: 46.4 µM
- Oxidation inhibitory effect (%) [2]: 93.7%

Second part, led by results:

- blood level of 2-O-α-D-monoglucopyranosyl-L-ascorbic acid after its maximum, when administered with 6-Octa-AA-2G ([4]; metabolite, after maximum): undetectable level
- concentration at 0.25 h ([4]; rat, blood, 15 min after administration, read-out: blood level of 6-Octa-AA-2G): 38.2 µM
- concentration at 2 min ([4]; rat, blood, two minutes after administration, read-out: blood level of 6-Octa-AA-2G): 525 µM
- blood level of L-ascorbic acid compared with 2-O-α-D-monoglucopyranosyl-L-ascorbic acid ([4]; throughout experiment): exceeded
- EC50 [2]: 82.7 µM
Structure (SMILES): CCCCCCCC(=O)OC[C@H](O)[C@H]1OC(=O)C(O[C@H]2O[C@H](CO)[C@@H](O)[C@H](O)[C@H]2O)=C1O [Example 6-Octa-AA-2G, 2-O-α-D-monoglucopyranosyl-6-O-octanoyl-L-ascorbic acid]
- days needed to recover maximum body weight before initiating the administration [3]: six
- Oxidation inhibitory effect (%) [2]: 60.4%

- EC50 [2]: 91 µM
Structure (SMILES): CCCCCC(=O)OC[C@H](O)[C@H]1OC(=O)C(O[C@H]2O[C@H](CO)[C@@H](O)[C@H](O)[C@H]2O)=C1O [Example 6-Hexa-AA-2G, 2-O-α-D-monoglucopyranosyl-6-O-hexanoyl-L-ascorbic acid]
- Oxidation inhibitory effect (%) [2]: 55.1%

- EC50 [2]: 99.8 µM
Structure (SMILES): CCCC(=O)OC[C@H](O)[C@H]1OC(=O)C(O[C@H]2O[C@H](CO)[C@@H](O)[C@H](O)[C@H]2O)=C1O [Example 6-Buty-AA-2G, 6-O-butyryl-2-O-α-D-monoglucopyranosyl-L-ascorbic acid]
- Oxidation inhibitory effect (%) [2]: 50.1%
